Values joined by “and” are separate entries in the source; they are usually repeats but may differ in a detail not shown here. Equal values may be shown once.
Assay: mn = molality of the nth substance listed, in mol/kg
Conditions: 101 kPa, Liquid; for speed of sound: Sing-around technique in a fixed-path interferometer; for mass density: Vibrating tube method

CC(CO)(CO)CO [1,1,1-trimethylolethane] + O
speed of sound
Conditions	278.15 K	283.15 K	288.15 K	293.15 K	298.15 K	308.15 K	318.15 K
m1 = 0.09995	1433.9 m/s and 1433.8 m/s	1454.4 m/s	1472.6 m/s	1488.5 m/s	1502.4 m/s and 1502.5 m/s	1525 m/s	1540.9 m/s
m1 = 0.1985	1441.3 m/s	1461.3 m/s	1479 m/s	1494.5 m/s	1508 m/s and 1508.1 m/s	1529.9 m/s	1545.2 m/s and 1545.5 m/s
m1 = 0.291	1448.2 m/s	1467.7 m/s	1484.9 m/s	1500.1 m/s	1513.2 m/s	1534.4 m/s and 1534.7 m/s	1549.1 m/s and 1549 m/s
m1 = 0.3923	1455.6 m/s	1474.6 m/s	1491.3 m/s and 1491.4 m/s	1506.1 m/s	1518.8 m/s	1539.3 m/s and 1539.6 m/s	1553.3 m/s and 1553.2 m/s
m1 = 0.4962	1463.1 m/s	1481.5 m/s and 1481.6 m/s	1497.8 m/s	1512.1 m/s	1524.4 m/s and 1524.5 m/s	1544.2 m/s and 1544.5 m/s	1557.6 m/s and 1557.4 m/s
m1 = 0.6042	1470.7 m/s	1488.6 m/s	1504.4 m/s	1518.2 m/s	1530.1 m/s and 1530.2 m/s	1549.2 m/s and 1548.9 m/s	1561.9 m/s and 1561.7 m/s

CCC(CO)(CO)COCC(CC)(CO)CO [3,3,7,7-tetrakis(hydroxymethyl)-5-oxanonane] + O
speed of sound
Conditions	278.15 K	283.15 K	288.15 K	293.15 K	298.15 K	308.15 K	318.15 K
m1 = 0.01972	1429.8 m/s	1450.6 m/s	1469 m/s	1485.2 m/s	1499.3 m/s	1522.2 m/s and 1522 m/s	1538.2 m/s and 1538.3 m/s
m1 = 0.04105	1433.6 m/s and 1433.7 m/s	1454.1 m/s	1472.3 m/s	1488.2 m/s	1502.1 m/s	1524.5 m/s and 1524.3 m/s	1540.2 m/s and 1540.3 m/s
m1 = 0.06045	1437.1 m/s	1457.3 m/s	1475.2 m/s	1490.9 m/s	1504.6 m/s	1526.6 m/s and 1526.4 m/s	1542 m/s and 1542.1 m/s
m1 = 0.079	1440.3 m/s	1460.3 m/s	1478 m/s	1493.4 m/s	1506.9 m/s	1528.6 m/s and 1528.4 m/s	1543.7 m/s and 1543.8 m/s

CC(CO)CO [2-methyl-1,3-propanediol] + O
speed of sound
Conditions	278.15 K	283.15 K	288.15 K	293.15 K	298.15 K	308.15 K	318.15 K
m1 = 0.1097	1434 m/s	1454.5 m/s and 1454.4 m/s	1472.6 m/s	1488.5 m/s	1502.3 m/s and 1502.4 m/s	1524.7 m/s	1540.4 m/s and 1540.6 m/s
m1 = 0.1997	1440.3 m/s and 1440.4 m/s	1460.3 m/s	1477.9 m/s and 1478 m/s	1493.4 m/s	1506.9 m/s	1528.6 m/s	1543.8 m/s and 1544 m/s
m1 = 0.3091	1448 m/s	1467.3 m/s	1484.4 m/s	1499.4 m/s	1512.4 m/s	1533.6 m/s and 1533.3 m/s	1547.8 m/s and 1548 m/s
m1 = 0.3983	1454.1 m/s	1472.9 m/s and 1473 m/s	1489.6 m/s	1504.1 m/s and 1504.2 m/s	1516.8 m/s	1537.3 m/s and 1537 m/s	1551.1 m/s and 1551.2 m/s

OCC(CO)(CO)CO [2,2-bis(hydroxymethyl)-1,3-propanediol] + O
Conditions	mass density	speed of sound
273.15 K, m1 = 0.1002	1003.54 kg/m3 and 1003.55 kg/m3	–
273.15 K, m1 = 0.1501	1005.3 kg/m3 and 1005.29 kg/m3	–
273.15 K, m1 = 0.2001	1007.05 kg/m3 and 1007.04 kg/m3	–
273.15 K, m1 = 0.2503	1008.77 kg/m3	–
273.15 K, m1 = 0.3005	1010.48 kg/m3	–
273.15 K, m1 = 0.35	1012.15 kg/m3 and 1012.16 kg/m3	–
278.15 K, m1 = 0.1002	–	1432.6 m/s and 1432.7 m/s
278.15 K, m1 = 0.1501	–	1435.8 m/s
278.15 K, m1 = 0.2001	–	1439 m/s
278.15 K, m1 = 0.2503	–	1442.1 m/s and 1442.2 m/s
278.15 K, m1 = 0.3005	–	1445.3 m/s
278.15 K, m1 = 0.35	–	1448.3 m/s and 1448.4 m/s
283.15 K, m1 = 0.1002	1003.23 kg/m3	1453.3 m/s
283.15 K, m1 = 0.1501	1004.96 kg/m3	1456.2 m/s and 1456.3 m/s
283.15 K, m1 = 0.2001	1006.68 kg/m3 and 1006.69 kg/m3	1459.2 m/s
283.15 K, m1 = 0.2503	1008.38 kg/m3 and 1008.39 kg/m3	1462.2 m/s
283.15 K, m1 = 0.3005	1010.07 kg/m3 and 1010.08 kg/m3	1465.1 m/s
283.15 K, m1 = 0.35	1011.72 kg/m3 and 1011.73 kg/m3	1468 m/s
288.15 K, m1 = 0.1002	1002.59 kg/m3	1471.6 m/s
288.15 K, m1 = 0.1501	1004.3 kg/m3	1474.4 m/s
288.15 K, m1 = 0.2001	1006 kg/m3 and 1006.01 kg/m3	1477.2 m/s
288.15 K, m1 = 0.2503	1007.68 kg/m3 and 1007.69 kg/m3	1479.9 m/s
288.15 K, m1 = 0.3005	1009.35 kg/m3 and 1009.36 kg/m3	1482.6 m/s and 1482.7 m/s
288.15 K, m1 = 0.35	1010.98 kg/m3 and 1010.99 kg/m3	1485.3 m/s and 1485.4 m/s
293.15 K, m1 = 0.1002	1001.66 kg/m3	1487.7 m/s
293.15 K, m1 = 0.1501	1003.35 kg/m3	1490.3 m/s
293.15 K, m1 = 0.2001	1005.04 kg/m3 and 1005.03 kg/m3	1492.9 m/s and 1492.8 m/s
293.15 K, m1 = 0.2503	1006.7 kg/m3 and 1006.71 kg/m3	1495.5 m/s
293.15 K, m1 = 0.3005	1008.35 kg/m3	1498 m/s and 1498.1 m/s
293.15 K, m1 = 0.35	1009.97 kg/m3	1500.6 m/s
298.15 K, m1 = 0.1002	1000.47 kg/m3	1501.7 m/s
298.15 K, m1 = 0.1501	1002.14 kg/m3 and 1002.15 kg/m3	1504.1 m/s and 1504.2 m/s
298.15 K, m1 = 0.2001	1003.82 kg/m3	1506.6 m/s
298.15 K, m1 = 0.2503	1005.47 kg/m3	1509 m/s and 1509.1 m/s
298.15 K, m1 = 0.3005	1007.1 kg/m3 and 1007.11 kg/m3	1511.5 m/s
298.15 K, m1 = 0.35	1008.7 kg/m3 and 1008.71 kg/m3	1513.9 m/s
303.15 K, m1 = 0.1002	999.044 kg/m3 and 999.045 kg/m3	1513.8 m/s
303.15 K, m1 = 0.1501	1000.71 kg/m3	1516.2 m/s
303.15 K, m1 = 0.2001	1002.36 kg/m3 and 1002.37 kg/m3	1518.5 m/s
303.15 K, m1 = 0.2503	1004 kg/m3	1520.8 m/s
303.15 K, m1 = 0.3005	1005.62 kg/m3	1523.1 m/s and 1523 m/s
303.15 K, m1 = 0.35	1007.22 kg/m3 and 1007.21 kg/m3	1525.3 m/s
308.15 K, m1 = 0.1002	997.404 kg/m3 and 997.402 kg/m3	1524.3 m/s
308.15 K, m1 = 0.1501	999.052 kg/m3 and 999.053 kg/m3	1526.5 m/s and 1526.4 m/s
308.15 K, m1 = 0.2001	1000.7 kg/m3	1528.6 m/s
308.15 K, m1 = 0.2503	1002.33 kg/m3	1530.8 m/s
308.15 K, m1 = 0.3005	1003.93 kg/m3 and 1003.94 kg/m3	1533 m/s and 1532.9 m/s
308.15 K, m1 = 0.35	1005.51 kg/m3 and 1005.52 kg/m3	1535.1 m/s and 1535 m/s
318.15 K, m1 = 0.1002	993.545 kg/m3 and 993.543 kg/m3	1540.4 m/s
318.15 K, m1 = 0.1501	995.176 kg/m3 and 995.177 kg/m3	1542.3 m/s and 1542.4 m/s
318.15 K, m1 = 0.2001	996.806 kg/m3 and 996.808 kg/m3	1544.2 m/s and 1544.3 m/s
318.15 K, m1 = 0.2503	998.41 kg/m3 and 998.412 kg/m3	1546.2 m/s and 1546.3 m/s
318.15 K, m1 = 0.3005	1000 kg/m3	1548.1 m/s and 1548.2 m/s
318.15 K, m1 = 0.35	1001.56 kg/m3	1549.9 m/s and 1550 m/s and 1550.1 m/s

CC(C)(C)CO [2,2-dimethyl-1-propanol] + O
speed of sound
Conditions	278.15 K	283.15 K	288.15 K	293.15 K	298.15 K	308.15 K	318.15 K
m1 = 0.0485	1430.2 m/s	1452.5 m/s	1470.7 m/s	1486.8 m/s	1500.7 m/s	1523.3 m/s and 1523.1 m/s	1539.1 m/s and 1539.2 m/s
m1 = 0.09995	1434.4 m/s	1457.9 m/s and 1458 m/s	1475.7 m/s	1491.3 m/s	1504.9 m/s	1526.6 m/s and 1526.4 m/s	1541.8 m/s
m1 = 0.1472	1438.2 m/s and 1438.1 m/s	1463 m/s and 1462.9 m/s	1480.2 m/s	1495.5 m/s	1508.7 m/s	1529.7 m/s and 1529.5 m/s	1544.3 m/s and 1544.2 m/s
m1 = 0.1999	1442.3 m/s	1468.5 m/s and 1468.4 m/s	1485.2 m/s	1500 m/s	1512.8 m/s	1532.9 m/s	1546.9 m/s

Source: the NIST ThermoML archive (doi:10.1021/je300175w)
